According to patent publication EP1300161A1, “Cationic lipids suitable for gene transfer” (rubitec Gesellschaft für Innovation und Technologie der …, priority 2001, dated 2003):
“Also recorded” adds a separate entry of the source.

Tests used:
primary dendritic cells = assay: Lipofection transfection efficiency in primary dendritic cells; assay type: cell-based, human
[1] = test system: polarized cell line MDCK-C7
COS-7 cell-line [2] = assay: Lipofection (luciferase reporter) transfection efficiency in COS-7 cells; assay type: cell-based, African green monkey
Text: Screening / Lipofection studies: For a broad and reproducible testing the transfection properties of systematically varied new cationic lipids, we recently have developed an fully automated high throughput system ([…]. et al., J. Biomol. Screening (2001)). This system, which comprises the entire lipofection process from liposome formation to reporter gene assay, allows to identify candidate cationic lipids and to develop suitable lipofection reagents and protocols based on those lipids. Automation of this process was necessary, because manually testing of various cationic lipids or lipid mixtures is extremely labor intensive and high reproducibility can not be guarantied. Goal of this first step was to find the cationic lipid with the best hydrocarbon chain composition for the development of suitable lipofection reagents and protocols. All lipids with different hydrocarbon chains (lipids 1-16, table 1) which are R-configurated and have chloride as counter ion were tested using a standard protocol: From each lipid, eight different lipoplexes containing equimolar amounts of the helper lipid DOPE were formed using different DNA:lipid-charge ratios from 1:1 - 1:15, resulting in a lipofection profile for each lipid (fig. 1). The COS-7 cell-line was used for this first lipofection study because COS-7 is easy to transfect and differences between the lipids are easy to identify. For comparison, the transfection efficiency of the well know cationic lipid DOTAP at its best lipid/DNA charge ration of 2.5 was also determined in each run. Cell culture: The initial transfection screening was carried out using COS-7 cells. The cells were maintained in 96-well culture plates (Greiner, Frickenhausen, Germany) in 200 μl EMEM/10 % FCS/1 % Penicillin-streptomycin in a humidified atmosphere at 37 °C/5 % CO2. […] For the subsequent quantification of transfection efficiency (part 2) a reporter plasmid carrying the firefly luciferase gene under the control of the CMV promoter is used to form lipoplexes. […]

[3] = test system: mamma carcinoma cell line MDA-MB-468; assay: Lipofection transfection efficiency in MDA-MB-468 cells; assay type: cell-based
[4] = test system: mamma carcinoma cell line MCF-7; assay: Lipofection transfection efficiency in MCF-7 cells; assay type: cell-based
COS-7 cell-line [5] = assay: Lipofection (luciferase reporter) transfection efficiency in COS-7 cells; assay type: cell-based, African green monkey; remark: listed apart in the source
[6] = Cytotoxicity of lipoplexes (protein content of transfected versus non-transfected cells); assay type: cell-based, African green monkey; conditions: monkey, cos-7 cells; equimolar DOPE, COS-7; read-out: vitality of the cells at maximum transfection efficiency
Procedure: (§1) Goal of this first step was to find the cationic lipid with the best hydrocarbon chain composition for the development of suitable lipofection reagents and protocols. All lipids with different hydrocarbon chains (lipids 1-16, table 1) which are R-configurated and have chloride as counter ion were tested using a standard protocol: From each lipid, […] DNA:lipid-charge ratios from 1:1 - 1:15, resulting in a lipofection profile for each lipid (fig. 1). The COS-7 cell-line was used for this first lipofection study because COS-7 is easy to transfect and differences between the lipids are easy to identify. For comparison, the transfection efficiency of the well know cationic lipid DOTAP at its best lipid/DNA charge ration of 2.5 was also determined in each run. Part 2 (Transfection assays): After lipoplex formation, the robot took the cell culture microtiter plates from an incubator and removed the lid from the plates. Immediately prior to transfection, 100 µl of the culture medium were removed and the lipoplexes were dispensed into the wells (triplicates). The lids were replaced and the MTP were returned to the incubator. […] Assay specific standards and controls were added to the microplates, and luciferase activity and protein content of the lysates were measured. Transfection efficiencies were calculated by dividing luciferase activity by protein content.

COS-7 cell-line [7] = assay: as above; assay type: cell-based, African green monkey; conditions: Chol as helper lipid, ratio 0.7, chloride
Procedure: as §1

[8] = racemic, chloride, 70 mol-% cholesterol, MDA-MB-468
[9] = racemic, chloride, 70 mol-% cholesterol

CCCCCCCC/C=C\CCCCCCCC(=O)OCC(C[N+](C)(C)C)OC(=O)CCCCCCC/C=C\CCCCCCCC (stereo not shown) [DOTAP, N-(1(2,-dioleyoyl)propyl)-N,N,N-trimethylammonium chloride, reference compound]
transfection efficiency (primary dendritic cells; DC 5day, lower line): 3,18 +/- 5,87 (3) rlu/µg protein/ml
transfection efficiency [1]: 26,64 +/- 3,33 (2) rlu/µg protein/ml
transfection efficiency (COS-7 cell-line [2]; COS-7, lower line): 466,72 +/- 320,44 (11) rlu/µg protein/ml
transfection efficiency ([3]; MDA-MB468, lower line): 92,58 +/- 82,86 (9) rlu/µg protein/ml
transfection efficiency ([4]; lower line): 101,65 +/- 93,42 (7) rlu/µg protein/ml

CCCCCCCCCCCCCC[N+](C)(CCCCCCCCCCCCCC)CC(O)CO (stereo not shown) [KL-14]
factor by which transfection efficiency is reduced in comparison with COS-7-cells (primary dendritic cells; racemic, chloride, 70 mol-% cholesterol, dendritic cell): about 600
transfection efficiency, fold increase over DOTAP (primary dendritic cells; racemic, chloride, 70 mol-% cholesterol, dendritic cells): 1.5-2
factor by which transfection efficiency is reduced in comparison with COS-7-cells [1]: about 100
transfection efficiency, fold increase over DOTAP [1]: 1.5-2
transfection efficiency (comparison within the library) (COS-7 cell-line [2]; R-configurated, chloride, equimolar DOPE, COS-7): most effective; also recorded: highest transfection efficiency
transfection efficiency, DOPE-formulation compared with cholesterol mixture ([3]; equimolar mixture with DOPE, MDA-MB-468): lower
factor by which transfection efficiency is reduced in comparison with COS-7-cells [3, 8]: about 12
transfection efficiency, times higher than for DOTAP [3, 8]: 8
transfection efficiency, DOPE-formulation compared with cholesterol mixture ([4]; equimolar mixture with DOPE): lower
factor by which transfection efficiency is reduced in comparison with COS-7-cells [4, 9]: about 12
transfection efficiency, times higher than for DOTAP [4, 9]: 8
transfection efficiency, R- versus S-configuration (COS-7 cell-line [5]; Chol as helper lipid, ratio 0.7, chloride): statistically similar
Chol/KL-14 ratio giving highest transfection efficiency (COS-7 cell-line [5]; Cholesterol as helper lipid): 0.5-0.7
transfection efficiency (COS-7 cell-line [5]; Cholesterol as helper lipid, Chol/KL-14 ratios 0.3 - 1.2, compared with DOPE mixtures): always higher than for the mixtures of KL-14 with DOPE
transfection efficiency (COS-7 cell-line [5]; DOPE as helper lipid, DOPE/KL-14 ratio 0.3 to 1.2): very high
transfection efficiency as % of the chloride values (COS-7 cell-line [5]; racemic, counter ion acetate, cholesterol/KL-14 ratio 0.7): 57%
transfection efficiency (comparison of counter ions) (COS-7 cell-line [5]; racemic, counter ion chloride, cholesterol/KL-14 ratio 0.7): highest transfection efficiency
transfection efficiency as % of the values found for chloride (COS-7 cell-line [5]; racemic, counter ion methylsulfate, cholesterol/KL-14 ratio 0.7): 70-75%
transfection efficiency as % of the values found for chloride (COS-7 cell-line [5]; racemic, counter ion sulfate, cholesterol/KL-14 ratio 0.7): 70-75%
transfection efficiency as % of that of the standard lipid DOTAP (COS-7 cell-line [5]; without helper lipids): 70%
viability [6]: ~70%
toxicity, R- versus S-configuration (COS-7 cell-line [7]): statistically similar

CCCCCCCCCCCCCCN(CCCCCCCCCCCCCC)CC(O)CO (stereo not shown) [KL-14-analog which was not methylated]
transfection (COS-7 cell-line [2]; not methylated analog): did not transfect at all
